Results taken from PMC6384650, “Phenolic Compounds of Catalpa speciosa, Taxus cuspidata, and Magnolia acuminata have Antioxidant and Anticancer Activity” (Molecules, 2019).
In brackets after ≈: the same amount, converted by molar mass. Where a name gives a salt, the structure may show the parent alone.

Columns and labels:
[1] = β-carotene-linoleic acid assay; details: absorbance 470 nm
Description: (§1) The DPPH and β-carotene-linoleic acid assays were used in the Faculty of Food and Agricultural Sciences, King Saud University to determine the antioxidant activities of bark extract. For the DPPH assay, the samples were incubated for 30 min and the absorbance of the samples at 517 nm was measured. In the β-carotene-linoleic acid assay, the absorbance of the samples at 470 nm was measured. […] A standard antioxidant (butylated hydroxytoluene, BHT) was used as a positive control and the inhibition by the concentration of each sample was compared with that of the BHT and blank. The antioxidant activities were repeated twice in duplicates.

[2] = DPPH free radical scavenging assay; details: 30 min incubation, absorbance 517 nm
Description: as §1

[3] = test system: Jurkat cells (T-cell lymphoblast like); test: MTT antiproliferative assay, Jurkat; type: cell-based; details: 2 days incubation; for IC50: Homo sapiens, Jurkat, 48 h, read-out: In vitro antiproliferative activity IC50, Jurkat
Description: (§2) Fresh bark (0.25 g) was dried at 35 °C until a constant weight was obtained. The samples were ground and then dissolved in 3 mL methanol (99%) for 1 h in the dark at 25 °C. Bark solutions were centrifuged for 5 min at 10,000 rpm (7000 × g) and the supernatant was obtained (~2.7 mL). The samples were passed through a 0.45 μm polytetrafluroethylene (PTFE) nylon filter and then stored at −80 °C. Analytical grade chemicals (Sigma Aldrich, Germany) were used in the bioassays. The cancer cell lines, including cervical adenocarcinoma (HeLa), breast adenocarcinoma (MCF-7), T-cell lymphoblast like (Jurkat), urinary bladder carcinoma (T24), and colon adenocarcinoma (HT-29), were obtained from the American Type Culture Collection (ATCC).
(§3) The antiproliferative activity of bark extracts was examined in different cancer cells lines (HeLa, MCF-7, Jurkat, HT-29, and T24) and in normal cells (HEK-293) by using a modified 3-(4,5-dimethylthiazol-2-yl)-2,5-diphenyltetrazolium bromide (MTT) method. The cells were grown in 75 cm^2 flasks in MEM supplemented with 10% FBS, 17.8 mM NaHCO3, 0.1 mM non-essential amino acids, and 1 mM sodium pyruvate. They were seeded into 96-well plates at a density of 4 × 10^−4 per well, left to stand in 270 µL of medium, and incubated in an atmosphere of 37 °C and 5% CO2. Sterilin-filtered leaf extracts were added to the culture media in microtiter plates. Five doses of bark extracts were used at final concentrations of 50, 100, 200, 300, and 400 µg/mL in culture medium. Untreated cells were considered used as negative controls and vinblastine sulfate and taxol treatment were used as the positive controls. After incubation of the culture medium for 2 days at 37 °C and 5% CO2, phosphate buffer saline (PBS) washes were performed to remove extract traces and the medium supplied was 12 mM MTT dissolved in PBS. Subsequently, 0.04 N HCl dissolved in isopropanol was mixed in each well, left to stand for 40 min, and the absorbance at 570 nm was determined by using a microplate reader (Thermo Fisher Scientific, Waltham, Massachusetts, USA). The percentage inhibition of antiproliferation activity was calculated in triplicate:
(§4) % Inhibition = (Abs.570 nm control—Abs.570 nm sample)/Abs.570 nm control × 100. Subsequently, IC50 values were obtained by plotting the percentage of cell viability against the extract concentration and expressed in µg/mL.

[4] = test system: HT-29 cells (colon adenocarcinoma); test: MTT antiproliferative assay, HT-29; type: cell-based; details: 2 days incubation; for IC50: Homo sapiens, HT-29, 48 h, read-out: In vitro antiproliferative activity IC50, HT-29
Description: as §2, §3, §4

cancer cells = test: Apoptotic cell population by flow cytometry (Annexin V); type: cell-based; details: treatment at IC50, 24/48 h, versus untreated control
Description: Flow cytometry (FAC Scan, Becton Dickinson, Iowa, USA) was used to measure the apoptotic cell population. […] The cells were detached by using trypsin (0.25%) in Hank’s balanced salt solution (Thermo Fisher Scientific, Berlin, Germany). For staining the cells, the Annexin V apoptosis detection kit (Sigma, St. Louis, MO, USA) was used. Briefly, the cells were incubated in the dark at 37 °C for 15 min and washed with cold PBS, and the apoptotic populations were shown by the flow cytometer in quadrants: Lower left (viable cells), upper left (necrotic cells), lower right (early apoptotic cells), and upper right (late apoptotic cells).

[5] = test system: HeLa cells (cervical adenocarcinoma); test: MTT antiproliferative assay, HeLa; type: cell-based; details: 2 days incubation; for IC50: Homo sapiens, HeLa, 48 h, read-out: In vitro antiproliferative activity IC50, HeLa
Description: as §2, §3, §4

[6] = test system: MCF-7 cells (breast adenocarcinoma); test: MTT antiproliferative assay, MCF-7; type: cell-based; details: 2 days incubation; for IC50: Homo sapiens, MCF7, 48 h, read-out: In vitro antiproliferative activity IC50, MCF-7
Description: as §2, §3, §4

[7] = test system: MCF-7, HeLa, Jurkat, T24, and HT-29 cells; test: MTT antiproliferative assay, cancer cell line panel; type: cell-based; details: most cancer cells
Description: The samples were ground and then dissolved in 3 mL methanol (99%) for 1 h in the dark at 25 °C. Bark solutions were centrifuged for 5 min at 10,000 rpm (7000 × g) and the supernatant was obtained (~2.7 mL). The samples were passed through a 0.45 μm polytetrafluroethylene (PTFE) nylon filter and then stored at −80 °C. Analytical grade chemicals (Sigma Aldrich, Germany) were used in the bioassays. The cancer cell lines, including cervical adenocarcinoma (HeLa), breast adenocarcinoma (MCF-7), T-cell lymphoblast like (Jurkat), urinary bladder carcinoma (T24), and colon adenocarcinoma (HT-29), were obtained from the American Type Culture Collection (ATCC). […] The cells were grown in 75 cm^2 flasks in MEM supplemented with 10% FBS, 17.8 mM NaHCO3, 0.1 mM non-essential amino acids, and 1 mM sodium pyruvate. […] Sterilin-filtered leaf extracts were added to the culture media in microtiter plates. […] Untreated cells were considered used as negative controls and vinblastine sulfate and taxol treatment were used as the positive controls. After incubation of the culture medium for 2 days at 37 °C and 5% CO2, phosphate buffer saline (PBS) washes were performed to remove extract traces and the medium supplied was 12 mM MTT dissolved in PBS. Subsequently, 0.04 N HCl dissolved in isopropanol was mixed in each well, left to stand for 40 min, and the absorbance at 570 nm was determined by using a microplate reader (Thermo Fisher Scientific, Waltham, Massachusetts, USA). The percentage inhibition of antiproliferation activity was calculated in triplicate: % Inhibition = (Abs.570 nm control—Abs.570 nm sample)/Abs.570 nm control × 100. Subsequently, IC50 values were obtained by plotting the percentage of cell viability against the extract concentration and expressed in µg/mL.

HEK-293 cells = test: MTT antiproliferative assay, normal HEK-293 cells; type: cell-based; details: 2 days incubation; for IC50: Homo sapiens, HEK293, 48 h, read-out: In vitro antiproliferative activity IC50, HEK-293
Description: as §3, §4

[8] = test system: T24 cells (urinary bladder carcinoma); test: MTT antiproliferative assay, T24; type: cell-based; details: 2 days incubation; for IC50: Homo sapiens, T-24, 48 h, read-out: In vitro antiproliferative activity IC50, T24
Description: as §2, §3, §4

Compound	In vitro antiproliferative activity IC50, Jurkat [3]	In vitro antiproliferative activity IC50, HT-29 [4]	In vitro antiproliferative activity IC50, HeLa [5]	In vitro antiproliferative activity IC50, MCF-7 [6]	Antiproliferative activity against cancer cells (in words) [7]	In vitro antiproliferative activity IC50, HEK-293 (HEK-293 cells)	In vitro antiproliferative activity IC50, T24 [8]	IC50 [3]	IC50 [4]	IC50 [5]	IC50 [6]	IC50 (HEK-293 cells)	IC50 [8]	further results
Cc1cc(C(C)(C)C)c(O)c(C(C)(C)C)c1 [BHT, butylated hydroxytoluene]	–	–	–	–	–	–	–	–	–	–	–	–	–	β-Carotene-Linoleic Acid Assay (IC50) [1]: 3.2 ± 0.1c µg mL^−1; DPPH Free Radical Scavenging Activity (IC50) [2]: 2.9 ± 0.1c µg mL^−1
O.Oc1cc(O)c2c(c1)O[C@H](c1ccc(O)c(O)c1)[C@@H](O)C2 [Catechin]	38.16 ± 0.7 µg/mL	96.16 ± 1.5 µg/mL	36.48 ± 1.2 µg/mL	17.64 ± 1.8 µg/mL	notable antiproliferative activity against most cancer cells	˃400 µg/mL	183.28 ± 4.3 µg/mL	–	–	–	–	–	–	Accumulation of necrotic, early and late apoptotic cells (cancer cells): high accumulation of early and late apoptotic cells
COc1cc(/C=C/C(=O)O)ccc1O [Ferulic acid]	39.11 ± 2.3 µg/mL	126.26 ± 4.4 µg/mL	51.73 ± 3.5 µg/mL	43.85 ± 1.3 µg/mL	notable antiproliferative activity against most cancer cells	˃400 µg/mL	227.26 ± 5.1 µg/mL	–	–	–	–	–	–	–
O=C(O)c1ccc(O)c(O)c1 [Protocatechuic acid, 3,4-dihydroxybenzoic acid]	–	–	–	–	notable antiproliferative activity against most cancer cells	–	–	47.4 ± 2.1 µg/mL (≈ 307 µM)	95.3 ± 3.3 µg/mL (≈ 619 µM)	39.1 ± 2.3 µg/mL (≈ 254 µM)	19 ± 2.1 µg/mL (≈ 123 µM)	> 400 µg/mL	176 ± 2.1 µg/mL (≈ 1140 µM)	–
CC(=O)O[C@H]1C(=O)[C@@]2(C)[C@H]([C@H](OC(=O)c3ccccc3)[C@]3(O)C[C@H](OC(=O)[C@H](O)[C@@H](NC(=O)c4ccccc4)c4ccccc4)C(C)=C1C3(C)C)[C@]1(OC(C)=O)CO[C@@H]1C[C@@H]2O [Taxol]	–	–	–	–	–	–	–	–	–	–	0.09 ± 0.009 µg/mL (≈ 0.105 µM)	–	–	–
CC[C@]1(O)C[C@@H]2CN(CCc3c([nH]c4ccccc34)[C@@](C(=O)OC)(c3cc4c(cc3OC)N(C)[C@H]3[C@@](O)(C(=O)OC)[C@H](OC(C)=O)[C@]5(CC)C=CCN6CC[C@]43[C@@H]65)C2)C1 [Vinblastine sulfate]	–	–	–	–	–	–	–	0.1 ± 0.09 µg/mL	21 ± 0.1 µg/mL	2.7 ± 0.06 µg/mL	–	50.1 ± 2.3 µg/mL	65.7 ± 2.1 µg/mL	–
CC[C@]1(O)C[C@H]2CN(CCc3c([nH]c4ccccc34)[C@@](C(=O)OC)(c3cc4c(cc3OC)N(C=O)[C@H]3[C@@](O)(C(=O)OC)[C@H](OC(C)=O)[C@]5(CC)C=CCN6CC[C@]43[C@@H]65)C2)C1 [Vincristine]	–	–	–	–	–	–	–	0.4 ± 0.05 µg/mL (≈ 0.485 µM)	47.3 ± 0.2 µg/mL (≈ 57.3 µM)	8.5 ± 0.1 µg/mL (≈ 10.3 µM)	4.63 ± 1.8 µg/mL (≈ 5.61 µM)	78.3 ± 1.6 µg/mL (≈ 94.9 µM)	89.8 ± 2.5 µg/mL (≈ 109 µM)	–
Hydroxycaffeic acid	63.09 ± 1.4 µg/mL	113.15 ± 2.9 µg/mL	65.31 ± 2.4 µg/mL	58.11 ± 0.9 µg/mL	notable antiproliferative activity against most cancer cells	˃400 µg/mL	176.12 ± 3.6 µg/mL	–	–	–	–	–	–	–
